ChEMBL document CHEMBL3774347, “Docking and Linking of Fragments To Discover Jumonji Histone Demethylase Inhibitors” (J Med Chem, 2016)
pIC50, pKi: −log10 of the molar value.

Legend:
[1] = biological target: T1, Lysine-specific demethylase 4C (Homo sapiens, UniProt Q9H3R0); test: Competitive inhibition of N-terminal His6-tagged KDM4C (1 to 352 residues) (unknown origin) expressed in Escherichia coli Rosetta 2(DE3)pLysS using 50 uM ARK(Me3)STGGK peptide/5 uM alpha-ketoglutarate as substrate/cofactor by FDH coupling-based Lineweaver-Burk plot analysis
T1 sequence (Q9H3R0 whole entry): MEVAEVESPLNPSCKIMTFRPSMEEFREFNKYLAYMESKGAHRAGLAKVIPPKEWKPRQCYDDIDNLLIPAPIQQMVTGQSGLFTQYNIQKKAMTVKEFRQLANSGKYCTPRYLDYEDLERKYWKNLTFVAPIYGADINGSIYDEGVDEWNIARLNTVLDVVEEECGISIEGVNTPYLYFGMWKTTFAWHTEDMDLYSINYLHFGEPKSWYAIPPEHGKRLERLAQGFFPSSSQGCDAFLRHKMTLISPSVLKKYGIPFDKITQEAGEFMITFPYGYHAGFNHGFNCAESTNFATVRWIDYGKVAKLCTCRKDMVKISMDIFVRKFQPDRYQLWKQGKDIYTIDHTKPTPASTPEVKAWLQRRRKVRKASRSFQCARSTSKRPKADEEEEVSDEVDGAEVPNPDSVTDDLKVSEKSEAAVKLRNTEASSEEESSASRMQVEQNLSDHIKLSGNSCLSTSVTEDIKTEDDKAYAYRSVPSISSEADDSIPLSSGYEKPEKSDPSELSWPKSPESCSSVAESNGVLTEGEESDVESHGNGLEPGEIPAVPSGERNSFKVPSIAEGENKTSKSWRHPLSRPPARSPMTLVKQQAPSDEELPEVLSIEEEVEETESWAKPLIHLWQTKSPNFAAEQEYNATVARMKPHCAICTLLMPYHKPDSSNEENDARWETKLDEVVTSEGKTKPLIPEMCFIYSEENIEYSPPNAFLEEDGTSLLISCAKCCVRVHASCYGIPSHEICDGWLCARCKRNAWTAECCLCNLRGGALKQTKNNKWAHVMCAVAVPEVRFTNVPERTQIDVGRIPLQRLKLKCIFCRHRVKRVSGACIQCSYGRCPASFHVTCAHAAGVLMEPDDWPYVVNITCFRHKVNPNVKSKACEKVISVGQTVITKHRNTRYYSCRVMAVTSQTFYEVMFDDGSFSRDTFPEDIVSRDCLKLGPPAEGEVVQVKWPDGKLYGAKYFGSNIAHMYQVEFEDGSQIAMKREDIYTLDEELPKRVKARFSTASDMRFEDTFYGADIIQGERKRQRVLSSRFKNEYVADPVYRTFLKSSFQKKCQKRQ

[2] = biological target: T1, Lysine-specific demethylase 4C
[3] = biological target: T1, Lysine-specific demethylase 4C; test: Competitive inhibition of N-terminal His6-tagged KDM4C (1 to 352 residues) (unknown origin) expressed in Escherichia coli Rosetta 2(DE3)pLysS using 50 uM ARK(Me3)STGGK peptide/50 uM alpha-ketoglutarate as substrate/cofactor by FDH coupling-based Lineweaver-Burk plot analysis
[4] = biological target: T1, Lysine-specific demethylase 4C; test: Competitive inhibition of N-terminal His6-tagged KDM4C (1 to 352 residues) (unknown origin) expressed in Escherichia coli Rosetta 2(DE3)pLysS using 250 uM ARK(Me3)STGGK peptide/50 uM alpha-ketoglutarate as substrate/cofactor by FDH coupling-based Lineweaver-Burk plot analysis
[5] = biological target: T2, Lysine-specific demethylase 3A (Homo sapiens, UniProt Q9Y4C1); test: Inhibition of KDM3A (unknown origin) expressed in Escherichia coli using H3 (1 to 21 residues) K9Me2-GGK-Biotin KDM3A Cognate Ligand/10 uM alpha-ketoglutarate as substrate/cofactor preincubated for 5 mins followed by substrate addition measured after 20 mins by alphascreen assay
T2 sequence (Q9Y4C1 whole entry): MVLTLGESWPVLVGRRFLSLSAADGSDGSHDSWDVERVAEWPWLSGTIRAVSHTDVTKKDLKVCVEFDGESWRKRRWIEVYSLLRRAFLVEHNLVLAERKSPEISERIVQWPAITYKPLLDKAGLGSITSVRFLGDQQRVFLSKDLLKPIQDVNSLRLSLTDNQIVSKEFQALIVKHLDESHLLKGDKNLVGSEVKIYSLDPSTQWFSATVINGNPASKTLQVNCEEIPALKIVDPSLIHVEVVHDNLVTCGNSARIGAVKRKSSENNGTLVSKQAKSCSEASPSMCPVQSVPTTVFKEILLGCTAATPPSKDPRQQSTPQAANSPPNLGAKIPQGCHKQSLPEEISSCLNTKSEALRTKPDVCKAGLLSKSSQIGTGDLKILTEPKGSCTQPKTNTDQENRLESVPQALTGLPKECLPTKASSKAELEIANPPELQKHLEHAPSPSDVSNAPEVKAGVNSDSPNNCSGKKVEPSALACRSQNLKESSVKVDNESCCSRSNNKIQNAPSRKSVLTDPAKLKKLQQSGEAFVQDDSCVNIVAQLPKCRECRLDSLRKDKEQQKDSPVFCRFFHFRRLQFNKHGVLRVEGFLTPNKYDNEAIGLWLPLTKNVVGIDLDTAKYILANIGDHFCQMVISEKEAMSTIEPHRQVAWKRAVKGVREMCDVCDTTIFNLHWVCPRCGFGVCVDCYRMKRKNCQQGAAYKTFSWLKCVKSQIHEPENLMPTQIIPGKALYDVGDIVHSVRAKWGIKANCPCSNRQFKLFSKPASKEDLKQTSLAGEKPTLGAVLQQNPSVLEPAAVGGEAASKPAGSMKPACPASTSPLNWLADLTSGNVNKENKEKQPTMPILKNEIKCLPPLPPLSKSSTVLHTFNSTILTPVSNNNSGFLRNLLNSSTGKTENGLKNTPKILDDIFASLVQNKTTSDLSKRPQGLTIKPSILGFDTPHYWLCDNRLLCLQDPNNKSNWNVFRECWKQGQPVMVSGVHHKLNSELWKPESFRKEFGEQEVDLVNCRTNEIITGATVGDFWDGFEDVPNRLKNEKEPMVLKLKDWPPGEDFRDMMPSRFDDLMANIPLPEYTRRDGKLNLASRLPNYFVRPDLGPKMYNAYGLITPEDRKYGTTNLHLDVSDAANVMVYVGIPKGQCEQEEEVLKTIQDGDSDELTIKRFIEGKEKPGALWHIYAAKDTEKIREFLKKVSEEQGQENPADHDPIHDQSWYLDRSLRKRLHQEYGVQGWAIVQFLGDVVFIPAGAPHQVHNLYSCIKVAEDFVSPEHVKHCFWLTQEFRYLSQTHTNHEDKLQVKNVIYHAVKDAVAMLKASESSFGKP

Compound: O=C(O)c1ccnc(-c2cc(NC(=O)c3ccc(O)cc3)ccc2O)c1
- pIC50 [1]: 5.96
- pKi [2]: 7.36
- pIC50 [3]: 5.32
- pIC50 [4]: 5.26
- pIC50 [5]: 5.64

Compound: COCC(=O)Nc1ccc(O)c(-c2cc(C(=O)O)ccn2)c1
- pIC50 [1]: 5.48
- pKi [2]: 6.17
- pIC50 [3]: 4.85
- pIC50 [4]: 4.83
- pIC50 [5]: 4.96

Compound: Cc1cc(C(=O)Nc2ccc(O)c(-c3cc(C(=O)O)ccn3)c2)no1
- pIC50 [5]: 5.24

Compound: CC(=O)Nc1ccc(O)c(-c2cc(C(=O)O)ccn2)c1
- pIC50 [5]: 4.48

Compound: COc1cccc(CC(=O)Nc2ccc(O)c(-c3cc(C(=O)O)ccn3)c2)c1
- pIC50 [5]: 5.05
